The source of these data is PMC9144936, “New Cu^+2 Complexes with N-Sulfonamide Ligands: Potential Antitumor, Antibacterial, and Antioxidant Agents” (Molecules, 2022).

For one series, the system named is HeLa, WM35, HFL1 cells. In kind it is cell-based. The protocol: (§1) Three cell lines were used to determine the cytotoxicity of the complexes, a human cervical carcinoma line (HeLa), a human radical growth phase melanoma cell line (WM35), and a normal fibroblastic epithelial cell line (HFL1) using the MTT method. The cells were exposed to C1 and C2 complexes in different concentrations (50, 25, 12.5, 2, and 0.2 µM) at 24, 48, and 72 h. As positive contro, cisplatin was used.
This means that the cyytotoxicity is given by the complexes and that the chelation of the ligands with the copper ion is essential for the cytotoxicity of the complexes.
The cytotoxicity assays were performed using the MTT assay (3-(4,5-dimethylthiazol-2-yl)-2,5-diphenyl tetrazolium bromide-Sigma Aldrich). Cells were plated at a density of 1 × 10^5 cells/well in 96-well plates for 24 h in normal propagation media. The cultures were then exposed to C1 and C2 complexes in different concentrations (50, 25, 12.5, 2, and 0.2 µM). The complexes were first solubilized in DMSO (Sigma) and then serial dilutions in media were performed until the final concentration of DMSO was less than 1%. […] The cellular viability was determined using the MTT assay at 24, 48, and 72 h, respectively. Formazan particles were solubilized with DMSO and absorbances were determined at 550 nm using a microplate reader (Bio-Rad, Hercules, CA, USA). […]

Series [1] is described as follows: SOD mimetic activity, xanthine/xanthine oxidase system, NBT reduction. In kind it is biochemical. Conditions: pH 7.8, read-out: SOD-like activity IC50 (50% inhibition of NBT reduction). The protocol: The SOD-like activities of complexes C1 and C2 were determined by an indirect method using the xanthine/xanthine oxidase system as the source of superoxide radicals. […] The IC50 value for native Cu2Zn2SOD is 0.006 μΜ. Thus, the IC50 values for both complexes are higher than the IC50 value for native Cu2Zn2SOD but are similar to those of complexes with related sulfonamide ligands presented in the literature.
The in vitro SOD mimetic activities of the complexes were assayed using the Oberley and Spitz method with some minor modifications. To generate a reproductible and constant flux of superoxide anions, xanthine (1.5 × 10^−4 M) and xanthine oxidase in 50 mM potassium phosphate buffer, pH = 7.8, were used. The superoxide anions were detected by the reduction of nitro blue tetrazolium (NBT) (5.6 × 10^−5 M) to blue formazane, which was determined spectrophotometrically at 560 nm. Different concentrations of the complexes (50, 25, 12.5, 2, and 0.2 μM) were prepared in 50 mM Tris-HCl buffer, pH = 7.8. For each determination, 0.1 mL complex solution + 0.1 mL xanthine oxidase were added to 0.8 mL of solution containing 0.69 mL potassium phosphate buffer (pH = 7.8), 0.025 mL NBT, and […]. The inhibition percentage of NBT reduction was used to determine the SOD activities of the complexes. The conversion of xanthine to uric acid was measured at 310 nm. The % inhibition of enzyme activity was subtracted from that of NBT. The IC50 values (the concentration of complex needed to yield 50% inhibition of NBT reduction) were determined from plots of % inhibition versus complex concentration. A Specord 200 Plus Spectrophotometer was used to perform the determinations and all reagents were purchased from Sigma-Aldrich.

Series [2] has as its system human radical growth phase melanoma cell line (WM35). The series is described as follows: MTT cytotoxicity assay, WM35. In kind it is cell-based. The conditions noted are these: WM35 cells, MTT. The protocol:
as §1
(§2) To determine the cytotoxicity of the copper complexes, three cell lines were used: a human cervical carcinoma line (HeLa), a human radical growth phase melanoma cell line (WM35), and a normal fibroblastic epithelial cell line (HFL1). The cell lines were obtained from ATCC (American Type Cell Collection, Manassas, VA 20110-2209, USA) and were maintained in DMEM (Sigma-Aldrich, Saint Louis, Missouri, USA) supplemented with 10% fetal bovine serum (Hyclone), 1 mM glutamine (Sigma-Aldrich), and 1% antibiotic antimycotic 100× (Sigma-Aldrich). The cells were cultured at 37 °C in an atmosphere of 5% CO2 and 95% relative humidity.
(§3) The cytotoxicity assays were performed using the MTT assay (3-(4,5-dimethylthiazol-2-yl)-2,5-diphenyl tetrazolium bromide-Sigma Aldrich). Cells were plated at a density of 1 × 10^5 cells/well in 96-well plates for 24 h in normal propagation media. The cultures were then exposed to C1 and C2 complexes in different concentrations (50, 25, 12.5, 2, and 0.2 µM). The complexes were first solubilized in DMSO (Sigma) and then serial dilutions in media were performed until the final concentration of DMSO was less than 1%. As a positive control, cisplatin (Ebewe Pharma Ges.m.b.H. Nfg. KG, Austria) was used, in the same concentrations as the complexes. As a negative control, cell lines cultivated in normal expansion medium with the same amount of DMSO added were used. The cellular viability was determined using the MTT assay at 24, 48, and 72 h, respectively. Formazan particles were solubilized with DMSO and absorbances were determined at 550 nm using a microplate reader (Bio-Rad, Hercules, CA, USA). The cytotoxic activity, expressed as IC50 values representing the complex solution required to inhibit 50% of the cell proliferation, were calculated from the calibration curve by nonlinear regression. Each experiment was carried out in triplicate.
On the technique in general: Formazan colour is commonly taken as a measure of viable cells.

For series [3], the system named is human cervical carcinoma line (HeLa). The series is described as follows: MTT cytotoxicity assay, HeLa. Conditions: HeLa cells. It is filed as cell-based. The protocol:
as §1, §2, §3

Series [4] concerns normal fibroblastic epithelial cell line (HFL1). Description: MTT cytotoxicity assay, HFL1. It is filed as cell-based. Conditions: HFL1 cells. The protocol: as §1, §2, §3
For series [5], the system named is Bacillus cerreus ATCC 14579. Description: Disk diffusion method, B. cerreus. Conditions: Bacillus, ATCC14579; complexes 5 µL of 1 mg/mL; 25 µg Amoxicillin, 5 µg Norfloxacin; 24 h, 37 °C; read-out: Halo Zone Test (diameter of the inhibition zone). It is filed as cell-based. The text has this: (§4) The disk diffusion method was used to determine the antibacterial activity of the C1 and C2 copper complexes on four reference microbial strains, two Gram-positive (Staphylococcus aureus and Bacillus cerreus) and two Gram-negative (Escherichia coli and Pseudomonas aeruginosa) strains. The disk diffusion method was used to determine the antibacterial activity of the C1 and C2 copper complexes. The method was adapted for the purposes of the current study, according to the standards developed by the Clinical and Laboratory Standards Institute. Four reference microbial strains, two Gram-positive (Staphylococcus aureus ATCC […] and Bacillus cerreus ATCC 14579) and two Gram-negative (Escherichia coli ATCC 10536 and Pseudomonas aeruginosa ATCC 27853) strains, were used for in vitro susceptibility testing. These reference microbial strains were obtained from the American Type Culture Collection (ATCC, Manassas, VA, USA). As positive controls, Amoxicillin (Oxoid Ltd., Basingstoke, UK) and Norfloxacin (Sigma-Aldrich) were used. For each of the four species, an initial suspension of bacterial cultures was inoculated on nutrient agar plates (Merck KGaA, Darmstadt, Germany), incubated for 24 h at 37 ± 2 °C and resuspended in a physiological saline buffer to a […] concentration (on a 0.5 McFarland scale), and further inoculated on Muëller Hinton agar plates (Merck KGaA, Darmstadt, Germany). […] After inoculation, the medium surface was dried and 8 wells were radially drilled 1.5 cm from the outer edge, 3 cm apart. From aliquot samples of 1 mg/mL of each copper complex dissolved in DMSO and incorporated in sterile liquid medium, 5 μL was placed in each of the 8 wells and left for 30 min to diffuse into the agar plates. The plates were then incubated for 24 h at 37 ± 2 °C. Then, 25 μg Amoxicillin and 5 μg Norfloxacin served as a positive controls, while DMSO 0.75% was used as a negative control. Readings were conducted by measuring the diameter of the inhibition zone (Halo Zone Test, in mm). The germ sensitivity of the copper complexes was estimated by comparing the diameter of the inhibition area to that generated by the regular antibiotics with known inhibition values. […] All tests were triplicated, and the measured diameters of the inhibition zone were expressed (in mm) as mean ± standard deviation.
In general terms: In agar diffusion tests the substance spreads into inoculated agar from a disc or well.

Series [6] has as its system Pseudomonas aeruginosa ATCC 27853. Description: Disk diffusion method, P. aeruginosa. In kind it is cell-based. Further details: key to Halo Zone Test, class symbol: R = resistant. Conditions: 24 h, 37 °C.
From the text: as §4

Series [7] has as its system Escherichia coli ATCC 10536. The series is described as follows: Disk diffusion method, E. coli. In kind it is cell-based. Conditions: Escherichia coli, ATCC10536; complexes 5 µL of 1 mg/mL; 25 µg Amoxicillin, 5 µg Norfloxacin; 24 h, 37 °C; read-out: Halo Zone Test (diameter of the inhibition zone).
From the text: as §4

Series [8] relates to Staphylococcus aureus ATCC 6538P. The series is described as follows: Disk diffusion method, S. aureus. In kind it is cell-based. Conditions: Staphylococcus aureus, ATCC6538P; complexes 5 µL of 1 mg/mL; 25 µg Amoxicillin, 5 µg Norfloxacin; 24 h, 37 °C; read-out: Halo Zone Test (diameter of the inhibition zone).
From the text: as §4

`CCc1nnc(NS(=O)(=O)c2cccc3ccccc23)s1` [HL2, N-(5-ethyl-[1,3,4]–thiadiazole–2-yl)-naphtalenesulfonamide]: the “cytotoxicity of the free ligands” value with HeLa, WM35, HFL1 cells is reported as “no significant cytotoxicity”.

In the case of `Cc1ccc(-c2nnc(NS(=O)(=O)c3cccc4ccccc34)s2)cc1` [HL1, N-(5-(4-methylphenyl)-[1,3,4]–thiadiazole–2-yl)-naphtalenesulfonamide], in the series with HeLa, WM35, HFL1 cells, the “cytotoxicity of the free ligands” value is listed as “no significant cytotoxicity”.

Broadly, the IC50 is the concentration at which inhibition is half-maximal. Turning to “Cu2Zn2SOD: native Cu2Zn2 superoxide dismutase enzyme, comparison for SOD-like activity”, the IC50 in series [1] was 6 nM.

On to `N.N.[Cl][Pt][Cl]` [Cisplatin, cisplatin, reference compound], for which the half-maximal inhibitory concentration (IC50) in series [2] (24 h) came to 26.1 ± 0.43 µM; in series [2] (48 h) it was 11.15 ± 0.09 µM; in series [2] (72 h), 5.98 ± 0.03 µM; in series [3] (24 h), 21.03 ± 0.14 µM; in series [3] (48 h), 6.02 ± 0.19 µM; in [3] (72 h), 2.39 ± 0.04 µM. Further, the 50% inhibitory concentration (IC50) in [4] (24 h) was determined as 13.2 ± 0.89 µM; in series [4] (48 h) it was 3.99 ± 0.22 µM; in series [4] (72 h) it was 1.18 ± 0.13 µM.

For orientation: zone of inhibition means the extent of the growth-free halo in a diffusion test. As for `CC1(C)S[C@@H]2[C@H](NC(=O)[C@H](N)c3ccc(O)cc3)C(=O)N2[C@H]1C(=O)O` [Amoxicillin, reference compound], the zone of inhibition at 1000 µg/mL was found to be 13 ± 0.22 mm in [5], 18 ± 0.09 mm in series [7] and 19 ± 0.14 mm in [8]. Further, the “Halo Zone Test, class symbol” value in series [6] (25 µg Amoxicillin) is “R”.

For the compound `CCn1cc(C(=O)O)c(=O)c2cc(F)c(N3CCNCC3)cc21` [Norfloxacin, reference compound], the zone of inhibition at 1000 µg/mL in [5] came out at 18 ± 0.19 mm; in series [6] (Pseudomonas aeruginosa, ATCC27853, complexes 5 µL of 1 mg/mL, 5 µg Norfloxacin, read-out: Halo Zone Test (diameter of the inhibition zone)), 25 ± 0.24 mm; in [7] it was 20 ± 0.11 mm; in series [8], 16 ± 0.21 mm.
